# From PubChem BioAssay (NCI)
# “And” between values parts separate entries of the source, which are not always exact repeats. Equal values may be shown once.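 All cell lines were grown in 96-well plates and treated with compound for 48 hours. Abbreviation: GI50, concentration required for 50% inhibition of growth. Definition used: TGI = concentration required for complete inhibition of growth.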
# Legend:
# Assay in all cases: inhibition of tumour cell growth, NCI panel, 48 h
# A498 renal = tested on: A498 renal
# CCRF-CEM leukemia = tested on: CCRF-CEM leukemia
# EKVX NSCLC = tested on: EKVX NSCLC
# HOP-62 NSCLC = tested on: HOP-62 NSCLC
# SF-539 CNS = tested on: SF-539 CNS
# SK-MEL-5 melanoma = tested on: SK-MEL-5 melanoma
# SW-620 colon = tested on: SW-620 colon
# MCF7 breast = tested on: MCF7 breast
# PC-3 prostate = tested on: PC-3 prostate
# RPMI-8226 leukemia = tested on: RPMI-8226 leukemia
SMILES,TGI (A498 renal),TGI (CCRF-CEM leukemia),TGI (EKVX NSCLC),TGI (HOP-62 NSCLC),TGI (SF-539 CNS),TGI (SK-MEL-5 melanoma),TGI (SW-620 colon),GI50 (A498 renal),GI50 (CCRF-CEM leukemia),GI50 (HOP-62 NSCLC),GI50 (MCF7 breast),TGI (MCF7 breast),GI50 (PC-3 prostate),TGI (PC-3 prostate),GI50 (RPMI-8226 leukemia),TGI (RPMI-8226 leukemia),GI50 (SF-539 CNS),GI50 (SK-MEL-5 melanoma),GI50 (SW-620 colon),GI50 (EKVX NSCLC)
CCOC(=N)CC(=O)NC(C)c1ccccc1 (configuration not stated),> 100 µM,> 100 µM,> 100 µM,> 100 µM,> 100 µM,> 100 µM,> 100 µM,,,,,,,,,,,,,
CC(C)(C)c1ccc(S(=O)(=O)N[C@H]2CC[C@H]3[C@@H]4CCc5cc(O)ccc5[C@H]4CC[C@]23C)cc1,2.72 µM,7.79 µM,,3.98 µM,3.14 µM,3.05 µM,11.8 µM,1.31 µM,2.63 µM,2.07 µM,1.74 µM,3.57 µM,2.1 µM,7.57 µM,1.88 µM,4.51 µM,1.7 µM,1.65 µM,3.18 µM,
C=C(C)[C@]12CC(C)C34OC(/C=C\C=C\CCCCCCCCC)(O[C@@H]1[C@@H]3[C@@H]1O[C@]1(CO)[C@@H](O)[C@]1(O)C(=O)C(C)=C[C@@H]41)O2 (some centres not stated),,> 26.1 µM,27.8 µM,,17.2 µM,24.3 µM,,,,,,23.4 µM,< 0.0001 µM,12.9 µM,,17 µM,,0.000417 µM,,
CCCCCCCCCCCCCCCC(=O)N[C@H]1CCc2cc(OC)c(OC)c(OC)c2-c2ccc(SC)c(=O)cc21,3.64 µM and 5.35 µM,11.4 µM and 15.3 µM,,62.6 µM and 18.2 µM,2.08 µM and 3.64 µM,5.73 µM and 4.4 µM,15.6 µM and 10.8 µM,2.27 µM,2.68 µM,2.13 µM,,,,,,22.7 µM,1.24 µM,1.52 µM,2.1 µM,4.22 µM
COc1ccc(N(Cc2cc(OC)c(OC)c(OC)c2)C2OC(=O)c3ccccc32)cc1 (configuration not stated),1.61 µM,> 100 µM,,> 100 µM,1.24 µM,53.1 µM,> 100 µM,0.249 µM,0.435 µM,0.783 µM,0.386 µM,> 100 µM,0.666 µM,> 100 µM,0.539 µM,> 100 µM,0.317 µM,0.474 µM,0.374 µM,
COC(=O)C1=C(O)C(C(=O)OC)[C@@]2(O)[C@@H](C(=O)OC)C(c3ccc(OC(=O)C(CC(C)C)NC(C)=O)cc3)C[C@@H]1[C@@H]2C(=O)OC (some centres not stated),,> 100 µM,> 100 µM,> 100 µM,,> 100 µM,> 100 µM,,41.4 µM,31.2 µM,48.8 µM,> 100 µM,33.9 µM,> 100 µM,> 100 µM,> 100 µM,,18.5 µM,55.5 µM,39.7 µM
C[C@]12CC[C@@H]3c4ccc(O)cc4CC[C@H]3[C@@H]1CC[C@@H]2NS(=O)(=O)c1ccc(-c2ccccc2)cc1,9.13 µM,> 100 µM,,> 100 µM,15.7 µM,3.26 µM,> 100 µM,1.96 µM,3.34 µM,10.5 µM,3.56 µM,11.2 µM,3.18 µM,48.9 µM,2.51 µM,11.4 µM,3.91 µM,1.71 µM,5.54 µM,
O=c1c2cc(F)ccc2sc2c(NCCCN3CCCC3)nc3ccccc3c12,7.65 µM,4.51 µM,8.48 µM,,3.19 µM,3.07 µM,,1.74 µM,2.02 µM,,1.22 µM,2.89 µM,1.6 µM,3.15 µM,,,1.69 µM,1.69 µM,,2.58 µM
CCOC(=O)NNC(=O)NC12CC3CC(CC(C3)C1)C2,> 100 µM,> 100 µM,> 100 µM,> 100 µM,> 100 µM,> 100 µM,> 100 µM,,,,,,,,,,,,,
COc1ccc(-n2nc(C)c3c2N(C)C2(C)C[C@@H]4C3(C)[C@@H]3CC4(C2)N(C)c2c(c(C)nn2-c2ccc(OC)cc2)[C@H]3C)cc1 (some centres not stated),26.9 µM,,,10.5 µM,> 100 µM,,,3.95 µM,,3.1 µM,4.02 µM,> 100 µM,,,,,6.49 µM,,,
O=C1CC2Sc3ccccc3N=C2N1c1ccc(Cl)cc1Cl (configuration not stated),,52.9 µM,> 100 µM,> 100 µM,,> 100 µM,> 100 µM,,,,,,,,,> 100 µM,,,,
CCCCCCCCC(=O)NCCCNCCCNC(=O)CCCCCCCC,32.1 µM,14.9 µM,30.1 µM,27.9 µM,29.9 µM,14.1 µM,7.3 µM,,,,,,,,,11 µM,,,,
Clc1ccccc1C1=NN(c2ccccc2)C2c3cc(Br)ccc3OCC12 (configuration not stated),> 100 µM,> 100 µM,> 100 µM,> 100 µM,> 100 µM,,> 100 µM,,,,,,,,,> 100 µM,,,,
CC1(C)CC2(C)OC2C2(C1)N=NC(=Nc1ccccc1)O2 (configuration not stated),34.8 µM,8.07 µM,,30.4 µM,20.9 µM,18.5 µM,9.28 µM,16.7 µM,2.46 µM,8.76 µM,1.81 µM,13.2 µM,11.5 µM,28.9 µM,2.41 µM,6.82 µM,7.94 µM,5.48 µM,2.35 µM,
Cc1ns/c(=N\C(=S)N(C)C)n1C,> 100 µM,> 100 µM,> 100 µM,> 100 µM,> 100 µM,> 100 µM,> 100 µM,,,,,,,,,> 100 µM,,,,
Cc1cc(N)c2ccccc2[n+]1CCCCCCCCCC[n+]1c(C)cc(N)c2ccccc21,,3.53 µM and 16.2 µM and 6.15 µM,> 50 µM and 49.4 µM and 26.9 µM,2.8 µM and 9.51 µM,1.44 µM and 9.96 µM and 3.8 µM,,> 50 µM and 33.9 µM and > 100 µM,0.0691 µM,0.635 µM and 1.3 µM,0.201 µM,,,0.245 µM and 0.744 µM,4.63 µM and 15.8 µM and 11.1 µM,0.0435 µM and 0.324 µM,0.859 µM and 2.61 µM and 2.71 µM,0.241 µM and 1.56 µM,0.0679 µM and 0.367 µM,0.508 µM,
N#CC(=C=[N-])[n+]1ccc(Cl)cc1,86.6 µM,56 µM,33.8 µM,83 µM,43.2 µM,29.7 µM,23.4 µM,,,,,,,,,60.7 µM,,,,
O=C1c2cccc3cccc(c23)C(=O)N1CCCN1CCN(CCCN2C(=O)c3cccc4cccc(c34)C2=O)CC1,> 100 µM,> 100 µM,> 100 µM,> 100 µM,> 100 µM,> 100 µM,> 100 µM,,,,,,,,,> 100 µM,,,,
